Data set [1] in a line: In vitro intrinsic clearance in human liver microsomes. As to conditions: for microsomal CLint: human, liver microsomes, h CLint. It is filed as in vitro ADME. A general note: Liver microsomes are vesicles of endoplasmic reticulum, rich in cytochrome P450 enzymes.
Data set [2] in a line: In vitro intrinsic clearance in mouse liver microsomes. It is filed as in vitro ADME.
The nature of data set [3]: Stability in 0.1 M PBS pH 7.4. It counts as physicochemical. The note with it: 7 h incubation period.
Data set [4] is described as follows: Stability in P. falciparum activity test medium. It is filed as physicochemical. As to conditions: for half-life at 1 μM: P. falciparum in vitro activity test medium.
The test system of data set [5] is Chloroquine-sensitive NF54 P. falciparum isolate. Nature of the data set: In vitro antiplasmodial activity, NF54. It is filed as cell-based, Plasmodium falciparum.
Another data set can be described thus: Chromatographic LogD7.4. It is filed as physicochemical. The note with it: pH 7.4; for chromatographic logD: gradient HPLC, Phenomenex Synergi Hydro-RP column; for gLogD7.4: chromatographically determined.
Another data set deals with P. falciparum K1. Description: In vitro antiplasmodial activity, K1, 72 h [3H]hypoxanthine incorporation. As to conditions: Plasmodium falciparum, K1, read-out: P. falciparum IC50 K1. It is filed as cell-based.
The next data set concerns P. falciparum TM90C2B. It counts as cell-based. The note with it: Plasmodium falciparum, read-out: P. falciparum IC50 TM90C2B.
For another data set, the system named is P. falciparum Dd2. Description: In vitro antiplasmodial activity, Dd2, 72 h [3H]hypoxanthine incorporation. It counts as cell-based. As to conditions: Plasmodium falciparum, DD2, read-out: P. falciparum IC50 Dd2.
The subject of another data set is P. falciparum RF12. Description: In vitro antiplasmodial activity, RF12, 72 h [3H]hypoxanthine incorporation. It counts as cell-based. As to conditions: Plasmodium falciparum, read-out: P. falciparum IC50 RF12.
The next data set has as its system P. falciparum 7G8. Description: In vitro antiplasmodial activity, 7G8, 72 h [3H]hypoxanthine incorporation. It counts as cell-based. The note with it: Plasmodium falciparum, 7G8, read-out: P. falciparum IC50 7G8.
A short description of data set [6]: Kinetic solubility at pH 6.5 by nephelometry. The note with it: pH 6.5 phosphate buffer, 1% DMSO, solubility range by nephelometry. It is filed as physicochemical.
In data set [7] the test system is rat skeletal myoblast L6 cell line. Nature of the data set: Cytotoxicity, growth inhibition of L6 cells. It is filed as cell-based. As to conditions: read-out: L6 IC50, mean from n ≥ 2.
Data set [8] is described as follows: In vivo pharmacokinetics in mice. Further details: species or system male Swiss outbred mice.
For data set [9], the system named is GFP MRA-865 strain of Plasmodium berghei. Description: In vivo antimalarial activity in P. berghei-infected mice. The note with it: female NMRI mice, four 50 mg/kg daily oral doses; untreated control 52.3 ± 2.6%.
[10] abbreviates: Plasmodium falciparum, NF54, read-out: P. falciparum IC50, NF54, mean from n ≥ 2.
The mark [11] stands for this setting: read-out: P. falciparum IC50, NF54, mean from n ≥ 2.
The mark [12] stands for this setting: Plasmodium falciparum, NF54, read-out: P. falciparum IC50 NF54, Mean ± SD, n ≥ 2, 72 h [3H]hypoxanthine incorporation assay.

Where two headings read alike, the source gives them in different places. Some results are limits rather than exact numbers.

With `O=C1Nc2ccccc2C(=O)CCc2ccccc21` [Compound 2, 11,12-dihydro-5H-dibenzo[b,g]azonine-6,13-dione], in data set [1], the “h CLint” value came out at 20 μL/min/mg protein and the microsomal CLint (as a rule, the rate of metabolic loss divided by the concentration) was in the range of 20 to 40 µL/min/mg. This compound also showed a microsomal CLint in data set [2] of 39 µL/min/mg. Also, the “loss in 0.1 M PBS pH 7.4” value in data set [3] is reported as < 5%. In addition, the “Apparent degradation t1/2, In Vitro Assay Medium” value in [4] (1 μM, 37 °C, 6 h incubation, parentheses 95% confidence interval) is “No loss detected over 6 h”. The IC50 in data set [5] (setting [10]) came out at 0.19 µM. Also, the chromatographic logD (as a rule, a lipophilicity value derived from retention on a column) in “Chromatographic LogD7.4” was found to be 1.9.
In the case of `O=C1Nc2ccccc2C(=O)CCc2cc(F)ccc21` [Compound 32, 9-Fluoro-11,12-dihydro-5H-dibenzo[b,g]azonine-6,13-dione], the results for the microsomal CLint in data set [1] and in data set [2] were 11 µL/min/mg and 110 µL/min/mg, respectively. The “loss in 0.1 M PBS pH 7.4” value in data set [3] is listed as < 5%. Also, the half-life (as a rule, the time needed for the level to fall by half in the phase considered) at 1 μM in data set [4] is 25 h. In data set [5] (setting [10]), the IC50 was 0.13 µM. Besides, in the data set “Chromatographic LogD7.4”, the chromatographic logD worked out at 2.1.
With `CCN(CC)CCCC(C)Nc1ccnc2cc(Cl)ccc12` (stereo not shown) [Chloroquine, chloroquine], the IC50 came to 0.27 ± 0.041 µM with P. falciparum K1; 0.16 ± 0.022 µM in the data set on P. falciparum TM90C2B; 0.18 ± 0.021 µM in the data set on P. falciparum Dd2; 0.35 µM in the data set on P. falciparum RF12; 0.0091 ± 0.0015 µM in [5] (Plasmodium falciparum, NF54, read-out: P. falciparum IC50 NF54); 0.057 ± 0.0009 µM with P. falciparum 7G8.
As to `O=C1Nc2ncccc2C(=O)CCc2ccccc21` [Compound 29, 6,7-Dihydro-5H-benzo[g]pyrido[2,3-b]azonine-5,12-(13H)-dione], in data set [1], the “h CLint” value worked out at 13 μL/min/mg protein. In addition, in data set [2], the “m CLint” value amounted to 26 μL/min/mg protein. For the same compound, the figures for the IC50 in [5] (setting [11]) and in [7] were 8.9 µM and 60 µM, respectively. Further, the “Kinetic Sol6.5” value in data set [6] is >100 µg/mL. The gLogD7.4 in the data set “Chromatographic LogD7.4” was found to be 1.2.
For `O=C1CCc2cccnc2C(=O)Nc2ccccc21` [Compound 31, 5,6-Dihydro-7H-benzo[b]pyrido[3,2-g]azonine-7,13-(12H)-dione], the “h CLint” value in [1] turned out to be 11 μL/min/mg protein. In addition, the “m CLint” value in data set [2] turned out to be 10 μL/min/mg protein. Further, the IC50 in data set [5] (setting [11]) stood at 11 µM; in data set [7], 190 µM. In addition, the “Kinetic Sol6.5” value in data set [6] is >100 µg/mL. In the data set “Chromatographic LogD7.4”, this compound displayed a gLogD7.4 of 0.9.
As for `O=C1CCOc2ccccc2C(=O)Nc2ccccc21` [Compound 7, 6,7-Dihydro-8H-dibenzo[b,f][1,5]oxazecine-8,14-(13H)-dione], the IC50 in data set [5] (setting [11]) worked out at 21 µM; in data set [7], 31 µM. Besides, the “fold less potent than 2 (antiplasmodial)” value in [5] (relative to compound 2) is given as > 100 fold. For the same compound, in data set [6], the “Kinetic Sol6.5” value was >100 µg/mL. In “Chromatographic LogD7.4”, this compound showed a gLogD7.4 of 2.0.
Take `O=C1Nc2cc(F)cc(F)c2C(=O)CCc2ccccc21` [Compound 28, 1,3-Difluoro-11,12-dihydro-5H-dibenzo[b,g]azonine-6,13-dione]: the clearance – broadly, the volume of plasma or blood freed of the substance per unit of time – in [8] (male, Swiss outbred, mouse, plasma, iv) is 8.82 L/h/kg. Besides, the Cmax – broadly, the peak of the concentration-time curve – in [8] (male, Swiss outbred, mouse, plasma, po) was ~0.5 µg/mL. The “adverse reactions or compound-related side effects” value in [8] (mice, 24 h post-dose sampling period, IV and PO) was “No adverse reactions or compound-related side effects were observed”. The same compound returned a parasitemia in [9] of 49.0 ± 4.3%. Further, the microsomal CLint worked out at 17 µL/min/mg in [1] and 58 µL/min/mg in [2]. This compound showed a half-life at 1 μM in data set [4] of 4.7 h. Also, in data set [5] (setting [10]), the IC50 was determined as 0.007 µM. Further, the “in vitro selectivity index” value in data set [5] (antiplasmodial selectivity, L6 cytotoxicity vs P. falciparum) is given as > 10,000. The chromatographic logD in “Chromatographic LogD7.4” was found to be 2.5.
With `O=C1CCc2ccccc2C(=O)N2CCCc3cccc1c32` [Compound 15, 2,3,8,9-Tetrahydro-1H-benzo[7,8]azonino[3,2,1-i,j]-quinoline-7,14-dione], the “h CLint” value in data set [1] worked out at 310 μL/min/mg protein. Moreover, the “m CLint” value in data set [2] was > 870 μL/min/mg protein. Further, the IC50 in data set [5] (setting [11]) is 100 µM; in data set [7], 83 µM. Moreover, the “Kinetic Sol6.5” value in data set [6] lay in the range of 25 to 50 µg/mL. Also, the gLogD7.4 in the data set “Chromatographic LogD7.4” is on record as 2.9.
As to `C[C@H]1[C@H](OC(=O)CCC(=O)O)O[C@@H]2O[C@@]3(C)CC[C@H]4[C@H](C)CC[C@@H]1[C@@]24OO3` [Artesunate, artesunate], the IC50 in the data set on P. falciparum K1 worked out at 0.0028 ± 0.00064 µM; with P. falciparum TM90C2B, 0.0074 ± 0.0013 µM; with P. falciparum Dd2 it was 0.0061 ± 0.0014 µM; in the data set with P. falciparum RF12, 0.0068 ± 0.0014 µM; in [5] (setting [12]), 0.006 ± 0.0009 µM.
As for `COc1ccc2c(c1)C(=O)CCc1ccccc1C(=O)N2` [Compound 17, 2-Methoxy-11,12-dihydro-5H-dibenzo[b,g]azonine-6,13-dione], the values for the microsomal CLint in data set [1] and in data set [2] were 23 µL/min/mg and 440 µL/min/mg, respectively. Further, the IC50 in [5] (setting [10]) stood at 0.037 µM. Further, the “fold more potent than 2 (antiplasmodial)” value in [5] (relative to compound 2) is “roughly 5 fold”. Besides, in the data set “Chromatographic LogD7.4”, the chromatographic logD was found to be 2.1.
Regarding `O=C1Nc2ccccc2C(=O)CCc2ccc(F)cc21` [Compound 36, 8-Fluoro-11,12-dihydro-5H-dibenzo[b,g]azonine-6,13-dione], the values for the microsomal CLint in data set [1] and in data set [2] were 13 µL/min/mg and 43 µL/min/mg, respectively. The IC50 in data set [5] (setting [10]) amounted to 1.3 µM. In addition, in “Chromatographic LogD7.4”, the chromatographic logD was 2.1.
In the same order, the values of `O=C1Nc2ccccc2C(=O)CCc2ccc(O)cc21` [Compound 37, 8-Hydroxy-11,12-dihydro-5H-dibenzo[b,g]azonine-6,13-dione] are 7 µL/min/mg, 36 µL/min/mg, 1.1 µM and 1.2.
In the same order, the values of `CS(=O)(=O)c1ccc2c(c1)C(=O)CCc1ccccc1C(=O)N2` [Compound 23, 2-(Methylsulfonyl)-11,12-dihydro-5H-dibenzo[b,g]-azonine-6,13-dione] are 46 µL/min/mg, 19 µL/min/mg, 5.3 µM and 1.6.
Take `CCOC(=O)c1ccc2c(c1)C(=O)CCc1ccccc1C(=O)N2` [Compound 18, Ethyl 6,13-Dioxo-6,11,12,13-tetrahydro-5H-dibenzo-[b,g]azonine-2-carboxylate]: the IC50 worked out at 0.03 ± 0.0075 µM in the data set with P. falciparum K1; 1 µM in the data set with P. falciparum TM90C2B; 0.03 ± 0.0072 µM in the data set on P. falciparum Dd2; 0.011 ± 0.00086 µM with P. falciparum RF12; 0.041 µM in data set [5] (setting [10]); 0.041 ± 0.0074 µM in [5] (setting [12]). Besides, the IC50 with P. falciparum 7G8 was 0.032 ± 0.0099 µM. Besides, the microsomal CLint in data set [1] stood at 100 µL/min/mg; in [2] it was 910 µL/min/mg. Besides, the “fold more potent than 2 (antiplasmodial)” value in data set [5] (relative to compound 2) is “roughly 5 fold”. In addition, in the data set “Chromatographic LogD7.4”, the chromatographic logD was 2.6.

The values above are taken from paper PMC10860121 (ACS infectious diseases, 2023).
